Measurements reported in patent US20090131523A1, “Lipid compositions for the treatment and prevention of proliferative diseases and for the reduction of incidences of mutagenesis and carinogenesis” (Enzymotec Ltd., priority 2007, published 2009).

Tests used:
[1] = test system: tk locus of L5178Y mouse lymphoma cells; type: cell-based; details: 10 μg/ml
Description: The MLA assay evaluates the mutagenic potential of the tested oils based on quantitation of forward mutations at the tk locus of L5178Y in mouse lymphoma cells. The mutagenicity of the test agents is indicated by the increase in the number of mutants after treatment. The tk enzyme is responsible for incorporating exogenous thymidine via a salvage pathway, into the cell in the form of thymidine monophosphate. Analogues of thymidine, such as trifluorothymidine (TFT) can also be phosphorylated by tk enzyme, which leads to cell toxicity. Forward mutation at this locus results in a loss of tk activity and subsequent resistance to TFT, which is used as the selective agent to kill wild type cells. Thus the tk mutants are not killed by TFT and are able to survive due to their ability to synthesize […] de novo.
The objective of the MLA assay was to study the inhibitory effect of Fat blend 6 (Table 2) on the incidence of mammalian cell gene mutations. Each group of L5178Y cells was incubated with one of the tested oils, i.e. with Fat blend 6 or with oil containing low palmitic acid (LPO), and the incidence of specific mutations was examined using the MLA assay. The study experiments were performed with a constant concentration of reference mutagen. Additionally, several concentrations of the test items were used. Positive and negative controls were included in the experiment.
Study procedure: 1×10^7 cells/culture (80 cm^2 flasks) were exposed to several concentrations of tested oil in the presence of the mutagen (10 μg/ml MMS) in parallel to the negative and positive controls (Table 6, FIG. 2). Cells were incubated with the tested oil and mutagen for 3-4 hours to induce and increase the efficiency of anti-mutagenesis effect. Following the incubation, the mutagen was removed by centrifugation (400 g, 5 min) and the cells were washed twice. Subsequently the cells were re-suspended in growth medium for an expression period of 4 days. Following expression period, cultures were seeded in selective medium (containing TFT). Cells from each experimental group were seeded in four 96-well plates at a density of 2000 cells/well in selective medium. After an incubation period of 11 days at 37±1° C., 5±0.5% CO2 and 95±5% humidified atmosphere, the number of colony containing/empty wells was scored using microscope. The colonies size and/or morphology were also characterized. The inhibitory effect of the 2 tested oils was evaluated using the following criteria: (a) a decrease of Mutation Frequencies in the presence of tested oil related to the positive control. (b) Decreased occurrence of small colonies (slow growth colonies) indicated by a high large/small colonies ratio was an indication for inhibitory potential clastogenic effects and/or chromosomal aberrations.
The study was conducted based on the Ninth Addendum to OECD Guidelines for Testing of Chemicals, Section 4, No. 476, “In Vitro Mammalian Cell Gene Mutation Test”, adapted 21 Jul. 1997. This type of study was used in Whittaker P, Evaluation of commercial kava extracts and kavalactone standards for mutagenicity and toxicity using the mammalian cell gene mutation assay in L5178Y mouse lymphoma cells, Food Chem. Toxicol. 2007.

[2] = test system: squamous cell carcinoma (SCC); details: Harris et al. 2005; cited from earlier work
[3] = palmitic acid in yoghurt; Nadathur et al. 1996; cited from earlier work

SMILES	% change in mutants compare to MMS treat [1]	Colony Sizing Large/small [1]	Mutants/10^6 cells [1]	Mutation factor [1]	relative suspension growth (RSG) [1]	association of increasing dietary proportions with squamous cell carcinoma [2]	anti-MNNG activity [3]
COS(C)(=O)=O [MMS, methyl methane sulfonate]	100%	1.53	489 per 10^6 cells	12	65.8%	–	–
CCCCCC/C=C\CCCCCCCC(=O)O [palmitoleic acid]	–	–	–	–	–	associated with reduced squamous cell carcinoma (SCC)	–
CCCCCCCCCCCCCCCC(=O)O [palmitic acid]	–	–	–	–	–	associated with reduced squamous cell carcinoma (SCC)	exerts anti-N-methyl-N′-nitro-N-nitrosoguanidine (MNNG) activity
